The CheMixHub viscosity set

Assay: xn = mol fraction of the nth substance listed

COCCOCCOCCOCCOC + ClC(Cl)(Cl)Cl
298.15 K, 101 kPa
Settings | viscosity [mPa·s]
x1 = 0.0127 | 0.966
x1 = 0.0282 | 1.01
x1 = 0.0629 | 1.122
x1 = 0.1168 | 1.311
x1 = 0.1932 | 1.562
x1 = 0.2437 | 1.723
x1 = 0.2943 | 1.888
x1 = 0.3592 | 2.081
x1 = 0.3669 | 2.102
x1 = 0.4164 | 2.242
x1 = 0.4414 | 2.319
x1 = 0.511 | 2.487
x1 = 0.5854 | 2.656
x1 = 0.6215 | 2.732
x1 = 0.6944 | 2.874
x1 = 0.7318 | 2.94
x1 = 0.7968 | 3.067
x1 = 0.8566 | 3.16
x2 = 0.0114 | 3.287

Clc1ccccc1 + CC(C)CO
viscosity [mPa·s], 101.33 kPa
Settings | x1 = 0.101 | x1 = 0.2015 | x1 = 0.2966 | x1 = 0.4019 | x1 = 0.4952 | x1 = 0.5979 | x1 = 0.6965 | x1 = 0.8009 | x1 = 0.8977
298.15 K | 2.558 | 1.975 | 1.593 | 1.301 | 1.124 | 0.9772 | 0.8803 | 0.8094 | 0.7666
313.15 K | 1.663 | 1.336 | 1.128 | 0.9531 | 0.8497 | 0.7614 | 0.7035 | 0.6586 | 0.633

Clc1ccccc1 + CCOC(C)=O
viscosity [mPa·s], 101 kPa
Settings | 298.15 K | 308.15 K
x2 = 0.0415 | 0.729 | 0.658
x2 = 0.1504 | 0.669 | 0.607
x2 = 0.2503 | 0.621 | 0.567
x2 = 0.3519 | 0.58 | 0.531
x2 = 0.4264 | 0.553 | 0.507
x2 = 0.4878 | 0.534 | 0.489
x2 = 0.5527 | 0.515 | 0.472
x2 = 0.6519 | 0.489 | 0.448
x2 = 0.7505 | 0.468 | 0.428
x2 = 0.8515 | 0.449 | 0.409
x2 = 0.9389 | 0.436 | 0.396

Clc1ccccc1 + Cc1cccc(C)c1
101 kPa
Settings | viscosity [mPa·s]
293.15 K, x1 = 0.1317 | 0.622
293.15 K, x1 = 0.2304 | 0.64
293.15 K, x1 = 0.3342 | 0.658
293.15 K, x1 = 0.4457 | 0.675
293.15 K, x1 = 0.5734 | 0.692
293.15 K, x1 = 0.6411 | 0.7
293.15 K, x1 = 0.7297 | 0.715
293.15 K, x1 = 0.8241 | 0.725
293.15 K, x1 = 0.9089 | 0.737
298.15 K, x1 = 0.115 | 0.587
298.15 K, x1 = 0.2331 | 0.605
298.15 K, x1 = 0.3319 | 0.621
298.15 K, x1 = 0.465 | 0.641
298.15 K, x1 = 0.565 | 0.655
298.15 K, x1 = 0.6929 | 0.671
298.15 K, x1 = 0.7812 | 0.685
298.15 K, x1 = 0.9072 | 0.697
303.15 K, x1 = 0.1144 | 0.55
303.15 K, x1 = 0.2301 | 0.571
303.15 K, x1 = 0.3415 | 0.585
303.15 K, x1 = 0.4598 | 0.605
303.15 K, x1 = 0.562 | 0.615
303.15 K, x1 = 0.6931 | 0.63
303.15 K, x1 = 0.8136 | 0.645
303.15 K, x1 = 0.904 | 0.651
308.15 K, x2 = 0.0886 | 0.661
308.15 K, x2 = 0.2076 | 0.6411
308.15 K, x2 = 0.3076 | 0.6254
308.15 K, x2 = 0.4147 | 0.6081
308.15 K, x2 = 0.5146 | 0.5927
308.15 K, x2 = 0.6138 | 0.578
308.15 K, x2 = 0.715 | 0.562
308.15 K, x2 = 0.8146 | 0.5474
308.15 K, x2 = 0.9338 | 0.5309
313.15 K, x2 = 0.0886 | 0.6235
313.15 K, x2 = 0.2076 | 0.6053
313.15 K, x2 = 0.3076 | 0.5896
313.15 K, x2 = 0.4147 | 0.5741
313.15 K, x2 = 0.5146 | 0.5604
313.15 K, x2 = 0.6138 | 0.5458
313.15 K, x2 = 0.715 | 0.5302
313.15 K, x2 = 0.8146 | 0.5163
313.15 K, x2 = 0.9338 | 0.5007

OCCCCCO + O=C1CCCN1
308.15 K, 101 kPa
Settings | viscosity [mPa·s]
x1 = 0.479 | 21.15
x1 = 0.9392 | 54.65

COCOCOCOCOC + COCOCOCOC
Settings | viscosity [mPa·s]
293.15 K, 100 kPa, x2 = 0.12 | 1.895

C[NH+](C)CCO.O=C([O-])CCCC(=O)O + O
101 kPa, x2 = 0.89
Settings | viscosity [mPa·s]
298 K | 19.3
313 K | 11.8

CCCCC(CC)CN (stereo not given) + COCCOCCOC
viscosity [mPa·s], 101.33 kPa
Settings | x2 = 0.0967 | x2 = 0.194 | x2 = 0.292 | x2 = 0.391 | x2 = 0.491 | x2 = 0.591 | x2 = 0.692 | x2 = 0.794 | x2 = 0.897
303.2 K | 0.98 | 0.97 | 0.96 | 0.95 | 0.94 | 0.93 | 0.92 | 0.93 | 0.94
313.2 K | 0.86 | 0.85 | 0.84 | 0.82 | 0.81 | 0.8 | 0.79 | 0.8 | 0.81

COC(C)(C)C + CCCCCCC
303.15 K, 101 kPa
Settings | viscosity [mPa·s]
x1 = 0.1976 | 0.373
x1 = 0.2745 | 0.369
x1 = 0.3423 | 0.364
x1 = 0.4536 | 0.359
x1 = 0.5656 | 0.356
x1 = 0.6441 | 0.353
x1 = 0.7685 | 0.35
x1 = 0.8606 | 0.349

CCOP(=O)(OCC)OCC + CC(=O)N(C)C
298.15 K, 101.3 kPa
Settings | viscosity [mPa·s]
x1 = 0.1085 | 0.997
x1 = 0.2118 | 1.066
x1 = 0.3173 | 1.133
x1 = 0.4275 | 1.199
x1 = 0.5277 | 1.257
x1 = 0.5946 | 1.294
x1 = 0.7173 | 1.36
x1 = 0.8144 | 1.41
x1 = 0.8998 | 1.456

C=CC(=O)OCC + C1CCOC1
viscosity [mPa·s], 101 kPa
Settings | 293.15 K | 298.15 K | 303.15 K | 308.15 K | 313.15 K | 318.15 K
x2 = 0.0825 | 0.5547 | 0.5211 | 0.4896 | 0.4554 | 0.4158 | 0.3758
x2 = 0.167 | 0.5422 | 0.5102 | 0.4802 | 0.4474 | 0.4096 | 0.3711
x2 = 0.2302 | 0.5338 | 0.503 | 0.4739 | 0.4421 | 0.4055 | 0.3682
x2 = 0.316 | 0.5237 | 0.4945 | 0.4666 | 0.436 | 0.401 | 0.3651
x2 = 0.3892 | 0.5163 | 0.4883 | 0.4613 | 0.4317 | 0.3978 | 0.3631
x2 = 0.4603 | 0.5102 | 0.4832 | 0.457 | 0.4283 | 0.3954 | 0.3617
x2 = 0.5286 | 0.5051 | 0.4791 | 0.4535 | 0.4256 | 0.3938 | 0.361
x2 = 0.5947 | 0.5011 | 0.4759 | 0.4509 | 0.4236 | 0.3926 | 0.3607
x2 = 0.6605 | 0.4979 | 0.4734 | 0.4489 | 0.4222 | 0.392 | 0.3609
x2 = 0.7283 | 0.4954 | 0.4716 | 0.4475 | 0.4213 | 0.3919 | 0.3615
x2 = 0.7874 | 0.4938 | 0.4707 | 0.4468 | 0.421 | 0.3922 | 0.3624
x2 = 0.8689 | 0.4927 | 0.4702 | 0.4466 | 0.4212 | 0.3931 | 0.3642
x2 = 0.936 | 0.4926 | 0.4705 | 0.4471 | 0.4219 | 0.3944 | 0.3661
